Source: PMC4461516 (Bioorganic & medicinal chemistry, 2015)
Where two headings read alike, the source gives them in different places.

Experiments:
[1] = test system: behavioral toxicity; conditions: rat, po; cited from earlier work
[2] = target: T1, Na+ currents in CAD cells (mostly Nav1.7) (Mus musculus, UniProt Q62205); conditions: read-out: Slow inactivation IC50, at −50 mV; cited from earlier work
[3] = test system: subcutaneous Metrazol (scMet) seizure; conditions: cited from earlier work
[4] = Rotorod test for neurological impairment, mice ip; conditions: mouse, in vivo
[5] = test system: 6 Hz (32 mA) psychomotor seizure; experiment: 6 Hz; format: in vivo, mice; conditions: Mus musculus, ip, read-out: 6 Hz ED50
[6] = test system: maximal electroshock seizure; experiment: Maximal electroshock seizure; format: in vivo, mice; conditions: Mus musculus, ip, read-out: MES ED50
[7] = test system: maximal electroshock seizure; conditions: rat, po, cited from earlier work
[8] = test system: 6 Hz (32 mA) psychomotor seizure; conditions: mice, ip, time (h) in brackets; cited from earlier work
[9] = test system: voltage-gated sodium channels (Nav1.1, Nav1.2, Nav1.3, Nav1.6) in rat embryonic cortical neurons; experiment: Whole-cell patch-clamp of Na+ currents in rat embryonic cortical neurons; format: cell-based; conditions: 10 μM, vs 0.1% DMSO control
[10] = target: T1, Na+ currents in CAD cells (mostly Nav1.7); experiment: Whole-cell patch-clamp of Na+ currents in CAD cells; format: cell-based; conditions: any concentration tested, control V1/2 −19.5 ± 2.8 mV
[11] = target: CYP2C9 (Homo sapiens, UniProt P11712); experiment: CYP450 inhibition panel: CYP2C9; format: in vitro ADME; conditions: 10 μM; data not shown
Chain of CYP2C9 (P11712 whole entry): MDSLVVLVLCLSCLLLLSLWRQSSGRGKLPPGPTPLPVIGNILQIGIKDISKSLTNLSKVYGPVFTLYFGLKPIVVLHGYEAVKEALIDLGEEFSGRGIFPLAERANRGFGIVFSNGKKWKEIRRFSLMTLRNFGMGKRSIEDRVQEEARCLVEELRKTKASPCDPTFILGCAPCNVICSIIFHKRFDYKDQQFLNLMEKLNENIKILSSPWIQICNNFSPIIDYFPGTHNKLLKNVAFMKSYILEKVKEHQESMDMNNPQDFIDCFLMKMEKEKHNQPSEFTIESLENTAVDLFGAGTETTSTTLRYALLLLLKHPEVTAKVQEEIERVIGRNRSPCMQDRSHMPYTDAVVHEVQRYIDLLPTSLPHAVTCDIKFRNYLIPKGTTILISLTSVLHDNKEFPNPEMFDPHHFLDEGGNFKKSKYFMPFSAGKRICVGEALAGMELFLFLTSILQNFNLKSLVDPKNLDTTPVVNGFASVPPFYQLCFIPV

[12] = target: CYP2C19 (Homo sapiens, UniProt P33261); experiment: CYP450 inhibition panel: CYP2C19; format: in vitro ADME; conditions: 10 μM; data not shown
Chain of CYP2C19 (P33261 whole entry): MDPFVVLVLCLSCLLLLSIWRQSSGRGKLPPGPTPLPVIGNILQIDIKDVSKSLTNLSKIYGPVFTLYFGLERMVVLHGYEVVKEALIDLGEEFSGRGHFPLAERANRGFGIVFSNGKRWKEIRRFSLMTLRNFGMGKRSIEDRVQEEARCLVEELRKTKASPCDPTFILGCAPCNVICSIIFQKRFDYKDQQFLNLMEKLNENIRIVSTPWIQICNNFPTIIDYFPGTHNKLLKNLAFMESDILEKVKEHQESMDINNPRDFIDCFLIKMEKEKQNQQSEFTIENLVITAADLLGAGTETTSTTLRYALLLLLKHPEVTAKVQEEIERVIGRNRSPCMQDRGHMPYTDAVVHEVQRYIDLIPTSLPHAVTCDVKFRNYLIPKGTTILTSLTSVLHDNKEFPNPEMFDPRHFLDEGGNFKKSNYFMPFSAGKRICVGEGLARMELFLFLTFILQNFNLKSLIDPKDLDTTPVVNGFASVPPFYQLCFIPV

[13] = target: T2, CYP2C8 (Homo sapiens, UniProt P10632); experiment: CYP450 inhibition panel: CYP2C8; format: in vitro ADME; conditions: 10 μM; data not shown
T2 sequence (P10632 1-490): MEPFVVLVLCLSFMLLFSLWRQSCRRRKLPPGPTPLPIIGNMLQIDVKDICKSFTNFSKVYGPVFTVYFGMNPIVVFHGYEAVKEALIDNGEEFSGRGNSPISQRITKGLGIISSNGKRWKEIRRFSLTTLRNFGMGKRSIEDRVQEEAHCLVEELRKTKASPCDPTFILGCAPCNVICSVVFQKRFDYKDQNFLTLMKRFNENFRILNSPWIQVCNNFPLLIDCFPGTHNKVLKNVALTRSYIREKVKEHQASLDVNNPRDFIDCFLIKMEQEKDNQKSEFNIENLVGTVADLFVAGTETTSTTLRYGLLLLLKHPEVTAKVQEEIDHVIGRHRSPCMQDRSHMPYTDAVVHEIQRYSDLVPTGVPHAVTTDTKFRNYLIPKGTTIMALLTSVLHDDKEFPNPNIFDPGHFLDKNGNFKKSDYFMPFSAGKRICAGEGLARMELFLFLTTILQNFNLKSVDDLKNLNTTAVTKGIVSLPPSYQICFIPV

[14] = target: hERG K+ channel (Homo sapiens, UniProt Q12809); experiment: hERG K+ channel activity; format: cell-based; conditions: 30 μM; Patch Express; data not shown
Chain of hERG K+ channel (Q12809 whole entry): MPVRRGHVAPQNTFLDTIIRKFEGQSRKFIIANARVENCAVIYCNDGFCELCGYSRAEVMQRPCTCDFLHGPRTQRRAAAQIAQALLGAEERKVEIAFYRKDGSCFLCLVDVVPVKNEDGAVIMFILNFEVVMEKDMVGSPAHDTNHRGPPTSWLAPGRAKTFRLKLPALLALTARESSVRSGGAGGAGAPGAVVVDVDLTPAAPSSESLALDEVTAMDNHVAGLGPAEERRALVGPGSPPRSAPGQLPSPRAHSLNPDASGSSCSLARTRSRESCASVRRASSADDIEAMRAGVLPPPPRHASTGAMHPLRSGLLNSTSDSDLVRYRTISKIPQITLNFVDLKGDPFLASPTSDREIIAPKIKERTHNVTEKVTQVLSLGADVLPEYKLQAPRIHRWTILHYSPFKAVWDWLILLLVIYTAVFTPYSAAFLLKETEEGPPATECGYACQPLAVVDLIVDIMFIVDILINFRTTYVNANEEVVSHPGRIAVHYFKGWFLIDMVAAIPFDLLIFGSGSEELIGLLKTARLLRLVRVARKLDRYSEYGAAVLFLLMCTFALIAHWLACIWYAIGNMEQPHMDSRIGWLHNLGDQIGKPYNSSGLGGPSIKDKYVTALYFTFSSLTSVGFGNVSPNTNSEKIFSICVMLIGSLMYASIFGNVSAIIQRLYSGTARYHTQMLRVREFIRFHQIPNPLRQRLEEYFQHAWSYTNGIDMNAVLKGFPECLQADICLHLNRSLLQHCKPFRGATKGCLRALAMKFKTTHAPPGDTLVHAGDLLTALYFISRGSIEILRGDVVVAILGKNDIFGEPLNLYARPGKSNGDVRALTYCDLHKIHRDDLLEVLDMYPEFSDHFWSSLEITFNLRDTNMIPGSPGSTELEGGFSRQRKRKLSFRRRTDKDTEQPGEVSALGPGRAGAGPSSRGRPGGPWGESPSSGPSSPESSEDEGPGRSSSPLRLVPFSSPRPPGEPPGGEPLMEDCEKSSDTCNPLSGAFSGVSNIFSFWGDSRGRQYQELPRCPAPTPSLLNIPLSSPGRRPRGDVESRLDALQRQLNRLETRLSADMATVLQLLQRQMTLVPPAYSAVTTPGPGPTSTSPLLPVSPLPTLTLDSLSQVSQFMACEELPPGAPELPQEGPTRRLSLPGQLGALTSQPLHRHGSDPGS

[15] = test system: CYP3A4/5; experiment: CYP450 inhibition panel: CYP3A4/5; format: in vitro ADME, human; conditions: 10 μM; data not shown
[16] = target: T3, CYP2B6 (Homo sapiens, UniProt P20813); experiment: CYP450 inhibition panel: CYP2B6; format: in vitro ADME; conditions: 10 μM; data not shown
T3 sequence (P20813 1-491): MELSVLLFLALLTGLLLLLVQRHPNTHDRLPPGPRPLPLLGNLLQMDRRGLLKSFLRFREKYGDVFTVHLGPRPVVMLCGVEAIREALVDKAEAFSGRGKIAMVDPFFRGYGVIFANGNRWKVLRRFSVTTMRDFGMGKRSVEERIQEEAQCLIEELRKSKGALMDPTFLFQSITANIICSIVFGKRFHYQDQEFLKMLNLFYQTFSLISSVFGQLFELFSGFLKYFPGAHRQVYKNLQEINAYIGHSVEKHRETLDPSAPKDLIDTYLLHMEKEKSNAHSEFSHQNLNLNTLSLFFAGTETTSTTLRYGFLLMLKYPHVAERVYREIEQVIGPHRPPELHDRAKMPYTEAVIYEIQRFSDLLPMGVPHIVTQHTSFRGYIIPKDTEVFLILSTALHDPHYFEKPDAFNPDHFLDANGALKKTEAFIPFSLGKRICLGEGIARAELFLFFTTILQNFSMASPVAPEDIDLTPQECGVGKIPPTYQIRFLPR

[17] = target: CYP2D6 (Homo sapiens, UniProt P10635); experiment: CYP450 inhibition panel: CYP2D6; format: in vitro ADME; conditions: 10 μM; data not shown
Chain of CYP2D6 (P10635 whole entry): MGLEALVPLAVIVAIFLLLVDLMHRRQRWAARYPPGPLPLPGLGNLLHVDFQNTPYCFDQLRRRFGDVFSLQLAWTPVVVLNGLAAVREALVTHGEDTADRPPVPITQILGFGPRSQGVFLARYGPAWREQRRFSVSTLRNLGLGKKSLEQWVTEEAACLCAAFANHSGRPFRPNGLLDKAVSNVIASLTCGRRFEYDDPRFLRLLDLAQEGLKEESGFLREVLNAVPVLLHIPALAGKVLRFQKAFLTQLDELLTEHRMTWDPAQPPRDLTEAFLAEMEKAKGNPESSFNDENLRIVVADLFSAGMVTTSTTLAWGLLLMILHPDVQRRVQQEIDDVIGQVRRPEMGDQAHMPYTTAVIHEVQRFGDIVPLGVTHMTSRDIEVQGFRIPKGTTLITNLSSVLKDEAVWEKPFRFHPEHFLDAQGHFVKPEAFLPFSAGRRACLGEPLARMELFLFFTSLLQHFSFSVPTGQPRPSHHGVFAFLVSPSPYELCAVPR

[18] = target: T4, CYP1A2 (Homo sapiens, UniProt P05177); experiment: CYP450 inhibition panel: CYP1A2; format: in vitro ADME; conditions: 10 μM; data not shown
T4 sequence (P05177 1-516): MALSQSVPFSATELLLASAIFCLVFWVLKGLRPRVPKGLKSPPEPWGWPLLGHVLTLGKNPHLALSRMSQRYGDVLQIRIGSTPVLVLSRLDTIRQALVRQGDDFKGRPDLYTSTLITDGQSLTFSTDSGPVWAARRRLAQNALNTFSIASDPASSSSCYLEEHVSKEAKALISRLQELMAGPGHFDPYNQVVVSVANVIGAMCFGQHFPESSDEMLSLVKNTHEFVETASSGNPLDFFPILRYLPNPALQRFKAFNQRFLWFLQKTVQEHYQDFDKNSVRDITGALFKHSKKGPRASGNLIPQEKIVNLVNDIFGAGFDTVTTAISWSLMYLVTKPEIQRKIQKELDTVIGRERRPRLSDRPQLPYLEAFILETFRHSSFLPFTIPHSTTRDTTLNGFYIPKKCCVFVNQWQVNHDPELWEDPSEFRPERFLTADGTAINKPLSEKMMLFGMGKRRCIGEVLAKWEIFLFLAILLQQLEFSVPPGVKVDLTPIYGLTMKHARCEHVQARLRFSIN

[19] = test system: maximal electroshock seizure; conditions: mice, ip; 95% CI in parentheses; cited from earlier work
[20] = test system: maximal electroshock seizure; conditions: rat, ip; 95% CI in parentheses; cited from earlier work

T1 sequence (Q62205 whole entry): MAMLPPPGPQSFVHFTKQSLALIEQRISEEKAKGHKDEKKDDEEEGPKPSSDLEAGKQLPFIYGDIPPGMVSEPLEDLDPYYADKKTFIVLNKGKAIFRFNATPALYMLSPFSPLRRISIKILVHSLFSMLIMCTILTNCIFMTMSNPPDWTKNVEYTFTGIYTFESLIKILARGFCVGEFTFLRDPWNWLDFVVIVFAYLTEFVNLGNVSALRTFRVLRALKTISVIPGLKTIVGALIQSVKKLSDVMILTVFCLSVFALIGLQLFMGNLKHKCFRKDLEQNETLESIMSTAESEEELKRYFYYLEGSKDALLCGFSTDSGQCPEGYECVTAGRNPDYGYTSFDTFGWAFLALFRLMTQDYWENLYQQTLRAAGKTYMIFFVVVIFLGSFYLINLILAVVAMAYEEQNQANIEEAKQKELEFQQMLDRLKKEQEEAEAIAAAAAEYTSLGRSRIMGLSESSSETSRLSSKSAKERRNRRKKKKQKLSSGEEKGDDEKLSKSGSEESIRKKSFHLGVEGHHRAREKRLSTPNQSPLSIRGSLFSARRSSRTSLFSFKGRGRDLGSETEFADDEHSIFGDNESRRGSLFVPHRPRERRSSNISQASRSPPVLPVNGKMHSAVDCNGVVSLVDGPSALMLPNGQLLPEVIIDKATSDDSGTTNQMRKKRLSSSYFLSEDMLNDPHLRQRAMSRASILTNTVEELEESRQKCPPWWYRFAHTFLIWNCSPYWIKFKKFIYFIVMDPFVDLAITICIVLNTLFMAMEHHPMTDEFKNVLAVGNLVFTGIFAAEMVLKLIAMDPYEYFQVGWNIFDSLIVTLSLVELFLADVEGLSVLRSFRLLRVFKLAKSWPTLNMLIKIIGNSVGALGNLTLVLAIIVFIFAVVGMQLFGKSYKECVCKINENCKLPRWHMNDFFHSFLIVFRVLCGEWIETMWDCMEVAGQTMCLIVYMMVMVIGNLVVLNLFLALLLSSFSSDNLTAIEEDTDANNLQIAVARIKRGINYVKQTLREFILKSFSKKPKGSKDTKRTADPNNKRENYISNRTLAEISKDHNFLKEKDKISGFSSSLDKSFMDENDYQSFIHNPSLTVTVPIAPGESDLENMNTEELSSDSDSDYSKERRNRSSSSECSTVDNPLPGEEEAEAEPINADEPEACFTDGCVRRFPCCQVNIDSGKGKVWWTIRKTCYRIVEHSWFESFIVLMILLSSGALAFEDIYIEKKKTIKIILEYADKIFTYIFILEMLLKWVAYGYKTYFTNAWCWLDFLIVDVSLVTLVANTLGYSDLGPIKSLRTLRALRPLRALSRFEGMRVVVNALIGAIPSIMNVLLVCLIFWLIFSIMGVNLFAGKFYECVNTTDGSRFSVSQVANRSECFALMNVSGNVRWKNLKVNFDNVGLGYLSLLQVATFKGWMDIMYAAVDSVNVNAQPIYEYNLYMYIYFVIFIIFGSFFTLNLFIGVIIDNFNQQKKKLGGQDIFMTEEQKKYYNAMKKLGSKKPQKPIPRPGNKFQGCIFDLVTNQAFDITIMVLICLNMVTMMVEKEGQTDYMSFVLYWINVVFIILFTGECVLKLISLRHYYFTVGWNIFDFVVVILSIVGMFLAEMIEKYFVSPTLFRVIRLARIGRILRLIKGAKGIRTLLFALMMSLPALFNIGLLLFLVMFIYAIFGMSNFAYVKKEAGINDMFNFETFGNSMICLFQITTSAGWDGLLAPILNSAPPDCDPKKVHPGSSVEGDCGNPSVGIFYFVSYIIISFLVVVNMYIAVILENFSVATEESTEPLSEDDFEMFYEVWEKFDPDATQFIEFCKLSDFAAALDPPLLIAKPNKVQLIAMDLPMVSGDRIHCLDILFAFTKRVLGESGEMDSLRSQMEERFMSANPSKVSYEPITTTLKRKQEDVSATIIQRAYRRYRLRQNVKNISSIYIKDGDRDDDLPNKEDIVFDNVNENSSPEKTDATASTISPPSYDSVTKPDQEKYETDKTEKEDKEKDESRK

SMILES: COC[C@@H](NC(C)=O)C(=O)NCc1ccccc1 [(R)-1, (R)-N-benzyl 2-N-acetamido-3-methoxypropionamide]
- Tox TD50 (behavioral toxicity) [1]: >500 [0.5] mg/kg
- IC50 [2]: 85 µM
- scMet seizure model: activity [3]: no activity

SMILES: COC[C@@H](NC(C)=O)C(=O)NCc1ccc(Oc2ccccc2)cc1 [(R)-3, (R)-N-4′-Phenoxybenzyl 2-N-Acetamido-3-methoxypropionamide]
- TD50 at 0.5 h [4]: 30 to 100 mg/kg
- ED50 [5]: 10 to 30 mg/kg
- ED50 [6]: 10 to 30 mg/kg

SMILES: COC[C@@H](NC(C)=O)C(=O)NCc1ccc(Oc2cccc(F)c2)cc1 [(R)-4]
- Tox TD50 (behavioral toxicity) [1]: >10 [0.25–4.0] mg/kg
- MES ED50 [7]: <10 [0.25–4.0] mg/kg
- 6 Hz ED50 [8]: ~10 [0.25–0.5] mg/kg

SMILES: COC[C@@H](NC(C)=O)C(=O)NCc1ccc(Oc2cccc(Cl)c2)cc1 [(R)-5, (R)-N-4′-((3″-Chloro)phenoxy)benzyl 2-N-Acetamido-3-methoxypropionamide]
- Effect on transition of VGSCs to the slow-inactivated state [9]: facilitated the transition of a majority of sodium channels into the slow-inactivated state

SMILES: COC[C@@H](NC(C)=O)C(=O)NCc1ccc(Oc2cccc(C(F)(F)F)c2)cc1 [(R)-7, (R)-N-4′-((3″-Trifluoromethyl)phenoxy)benzyl2-N-Acetamido-3-methoxypropionamide]
- ED50 [5]: 10 to 100 mg/kg

SMILES: COC[C@@H](NC(C)=O)C(=O)NCc1ccc(Oc2cccc(OC)c2)cc1 [(R)-8, (R)-N-4′-((3″-Methoxy)phenoxy)benzyl 2-N-Acetamido-3-methoxypropionamide]
- ED50 [5]: 30 to 100 mg/kg

SMILES: COC[C@@H](NC(C)=O)C(=O)NCc1ccc(Oc2cccc(OC(F)(F)F)c2)cc1 [(R)-9, (R)-N-4′-((3″-Trifluoromethoxy)phenoxy)benzyl2-N-Acetamido-3-methoxypropionamide]
- Steady-state activation properties vs control [10]: no different
- Direct inhibition of CYP2C9 [11]: little or no direct inhibition
- Direct inhibition of CYP2C19 [12]: little or no direct inhibition
- Direct inhibition of CYP2C8 [13]: little or no direct inhibition
- Effect on hERG K+ channel activity [14]: did not affect
- Direct inhibition of CYP3A4/5 [15]: little or no direct inhibition
- Direct inhibition of CYP2B6 [16]: little or no direct inhibition
- Direct inhibition of CYP2D6 [17]: little or no direct inhibition
- Direct inhibition of CYP1A2 [18]: little or no direct inhibition

SMILES: C[C@H](NCc1ccc(OCc2cccc(F)c2)cc1)C(N)=O [(S)-2, (S)-2-(4′-((3″-fluoro)benzyloxy)benzyl)aminopropionamide]
- IC50 [2]: 13 µM
- MES ED50 ([7]; 95% CI in parentheses): 12 (10–14) mg/kg
- MES ED50 [19]: 4.1 (3.0–5.5) mg/kg

SMILES: O=C1NC(=O)C(c2ccccc2)(c2ccccc2)N1 [phenytoin]
- MES ED50 ([7]; 95% CI in parentheses): 28 (21–35) mg/kg
- MES ED50 [20]: 2.4 (1.4–3.7) mg/kg
